This is an account of results in ChEMBL document CHEMBL1125509, “Synthesis and biological activity of CCK heptapeptide analogues. Effects of conformational constraints and standard modifications on receptor subtype selectivity, functional activity in vitro, and appetite suppression in vivo” (J Med Chem, 1992).

Assay [1] has as its target T1, Cholecystokinin receptor type A (Cavia porcellus, UniProt Q63931).
T1 sequence (Q63931 whole entry): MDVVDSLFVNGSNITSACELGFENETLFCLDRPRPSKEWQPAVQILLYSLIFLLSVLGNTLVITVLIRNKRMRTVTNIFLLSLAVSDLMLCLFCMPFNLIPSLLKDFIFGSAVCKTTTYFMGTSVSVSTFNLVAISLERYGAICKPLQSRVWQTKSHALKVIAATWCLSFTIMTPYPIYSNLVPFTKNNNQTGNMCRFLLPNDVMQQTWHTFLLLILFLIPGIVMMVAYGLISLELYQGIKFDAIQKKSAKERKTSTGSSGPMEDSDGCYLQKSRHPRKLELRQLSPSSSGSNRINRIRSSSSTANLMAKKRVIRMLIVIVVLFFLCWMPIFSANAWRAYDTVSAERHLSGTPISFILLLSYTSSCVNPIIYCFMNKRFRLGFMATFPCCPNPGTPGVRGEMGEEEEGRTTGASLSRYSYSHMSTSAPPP
The experiment in a line: Evaluated in vitro for its binding affinity towards cholecystokinin type A receptor of guinea pig pancreas.

Assay [2] has as its system Cholecystokinin receptor type A (Cavia porcellus). The assay is described as follows: Evaluated in vitro for maximal stimulatory activity for PI hydrolysis relative to CCK-8 in guinea pig tissue.
For assay [3] the test system is unchanged. The assay is described as follows: Ratio for CCK-A receptor of guinea pig pancreas (IC50(nM)) to CCK-B receptor of guinea pig cortex (IC50(nM)).
Assay [4] concerns the target Cholecystokinin receptor type A (Cavia porcellus). The experiment in a line: Evaluated in vitro for maximal stimulatory activity for amylase release relative to CCK-8 in guinea pig tissue.
The species entered for assay [5] is Cavia porcellus. The assay is described as follows: In vitro maximal stimulatory activity for amylase release relative to CCK-8 in guinea pig tissue at 3 uM. The assay is classed as functional.
Assay [6] can be described thus: (§1) Compound (10e-4 M) was evaluated in vitro for maximal stimulatory activity for PI hydrolysis relative to CCK-8 in guinea pig tissue. The assay is classed as functional.
Assay [7] relates to Rattus norvegicus. The assay is described as follows: Compound was evaluated for % suppression (at 30 nmol/kg) of food intake in rat (360-420 min). In kind it is functional.
The species entered for assay [8] is Cavia porcellus. The description is as §1. In kind it is functional.
For assay [9], the species on record is Cavia porcellus. The assay is described as follows: In vitro maximal stimulatory activity for amylase release relative to CCK-8 in guinea pig tissue at 5 nM. In kind it is functional.
The target of assay [10] is Cholecystokinin receptor (Rattus norvegicus) (UniProt P30551+P30553). The experiment in a line: Evaluated for effective dose required for suppression of food intake in rat (0-60 min). The assay is classed as functional.
In assay [11] the test system is Rattus norvegicus. The assay is described as follows: Compound was evaluated for % suppression (at 30 nmol/kg) of food intake in rat (360-420 min); not significant. The assay is classed as functional, organism-based.
The species named for assay [12] is Cavia porcellus. The experiment in a line: In vitro maximal stimulatory activity for amylase release relative to CCK-8 in guinea pig tissue at 10 uM. The assay is classed as functional.
For assay [13], the species on record is Cavia porcellus. The assay is described as follows: In vitro maximal stimulatory activity for amylase release relative to CCK-8 in guinea pig tissue at 20 nM. The assay is classed as functional.
The target in assay [14] is T2, Cholecystokinin receptor type A (Cavia porcellus) (UniProt Q63931).
T2 sequence (whole entry): T1 sequence (Q63931 whole entry)
The experiment in a line: Ratio of binding affinities for CCK-A receptor of guinea pig pancreas (IC50(nM)) to CCK-B receptor of guinea pig cortex (IC50(nM)). The assay is classed as tissue-based.

pIC50: −log10 of the molar value. The source made the active and inactive calls. The rule behind the calls is not given here. *1 amine or outer side, *2 acyl side, *3 side chain or, on linkers, in order; H or OH if unused. Where a SMILES comes first, the peptide text is derived from it. [ ]: non-standard residue; d: D form. The star is where a group is joined. Hydrocinnamoyl(4-OSO3H) = O=C(CCc1ccc(OS(=O)(=O)O)cc1)*; X2 = O=C([C@@H]1CC(OS(=O)(=O)O)CN1[*:1])[*:2]; X5 = CCC[C@H]1CCN([*:1])[C@@H]1C(=O)[*:2]; X4 = O=C(c1ccc2cc(OS(=O)(=O)O)ccc2c1)*; X1 = CCCC1CCN([*:1])[C@@H]1C(=O)[*:2]; X6 = O=C(/C=C/c1ccc(OS(=O)(=O)O)cc1)*; X3 = O=C(/C(=C/c1ccccc1)N[*:1])[*:2]; NMeF = CN[C@@H](Cc1ccccc1)C(=O)O; NMeD = CN[C@@H](CC(=O)O)C(=O)O; NMeL = CN[C@@H](CC(C)C)C(=O)O; Nle = CCCC[C@H](N)C(=O)O; Ava = NCCCCC(=O)O Some results are limits rather than exact numbers.

In the case of `CC(C)C[C@H](NC(=O)[C@H](Cc1c[nH]c2ccccc12)NC(=O)CCCCNC(=O)CCc1ccc(OS(=O)(=O)O)cc1)C(=O)N[C@@H](CC(=O)O)C(=O)N[C@@H](Cc1ccccc1)C(N)=O` ({Hydrocinnamoyl(4-OSO3H)-Ava}-WLDF-NH2), the pIC50 (commonly −log10 of the IC50, conventionally taken in molar units) in [1] was 6.82. This compound gave a Max response in assay [2] of 64%. In assay [3], the Ratio turned out to be 143. For the same compound, the EC50 (commonly the concentration needed to bring the measured effect to its halfway point) in assay [4] turned out to be 140 nM.
For the compound `CCCC[C@H](NC(=O)CCc1ccc(OS(=O)(=O)O)cc1)C(=O)NCC(=O)N[C@@H](Cc1c[nH]c2ccccc12)C(=O)N1CCC[C@H]1C(=O)N[C@@H](CC(=O)O)C(=O)N(C)[C@@H](Cc1ccccc1)C(N)=O` ({Hydrocinnamoyl(4-OSO3H)}-[Nle]GWPD[NMeF]-NH2), the pIC50 in [1] was 7.09. Also, in the assay listed under Cavia porcellus [5], the Stimulation is 98%.
The compound `CCC[C@H]1CCN(C(=O)[C@H](Cc2c[nH]c3ccccc23)NC(=O)CNC(=O)[C@@H]2CCCN2C(=O)CCc2ccc(OS(=O)(=O)O)cc2)[C@@H]1C(=O)N[C@@H](CC(=O)O)C(=O)N(C)[C@@H](Cc1ccccc1)C(N)=O` ({Hydrocinnamoyl(4-OSO3H)}-PGW[X5]D[NMeF]-NH2) [listing 1 of 2 here] gave a pIC50 in [1] of 8.14.
The compound `CCCC[C@H](NC(=O)CCc1ccc(OS(=O)(=O)O)cc1)C(=O)NCC(=O)N[C@@H](Cc1c[nH]c2ccccc12)C(=O)N[C@@H](CCCC)C(=O)N[C@@H](CC(=O)O)C(=O)N/C(=C\c1ccccc1)C(N)=O` ({Hydrocinnamoyl(4-OSO3H)}-[Nle]GW[Nle]D[X3]-NH2) displayed a Max response in [6] of 69%. In addition, the Ratio in assay [3] stood at 0.62.
`CCCC[C@H](NC(=O)CCc1ccc(OS(=O)(=O)O)cc1)C(=O)NCC(=O)N[C@@H](Cc1c[nH]c2ccccc12)C(=O)N[C@@H](CCCC)C(=O)N(C)[C@@H](CC(=O)O)C(=O)N[C@@H](Cc1ccccc1)C(N)=O` ({Hydrocinnamoyl(4-OSO3H)}-[Nle]GW[Nle][NMeD]F-NH2) came in with a Supression in the assay with Rattus norvegicus [7] of 29%. The same compound had a Max response in the assay listed under Cavia porcellus [8] of 100%.
Take `CCC[C@H]1CCN(C(=O)[C@H](Cc2c[nH]c3ccccc23)NC(=O)CNC(=O)[C@@H]2CCCN2C(=O)CCc2ccc(OS(=O)(=O)O)cc2)[C@@H]1C(=O)N[C@@H](CC(=O)O)C(=O)N(C)[C@@H](Cc1ccccc1)C(N)=O` ({Hydrocinnamoyl(4-OSO3H)}-PGW[X5]D[NMeF]-NH2) [listing 2 of 2 here]: the Stimulation in the assay listed under Cavia porcellus [9] is on record as 83%.
`CCCC[C@H](NC(=O)CCc1ccc(OS(=O)(=O)O)cc1)C(=O)NCC(=O)N[C@@H](Cc1c[nH]c2ccccc12)C(=O)N[C@@H](CCCC)C(=O)N[C@@H](CC(=O)O)C(=O)N(C)[C@@H](Cc1ccccc1)C(N)=O` ({Hydrocinnamoyl(4-OSO3H)}-[Nle]GW[Nle]D[NMeF]-NH2) returned a Supression in the assay with Rattus norvegicus [7] of 30%. Besides, the Ratio in assay [3] came to 0.1. In the assay listed under Cavia porcellus [8], this compound came in with a Max response of 94%. Also, the ED50 (as a rule, the dose that gives a 50% effect, or the effect in half of the subjects) in [10] is 0.00245 µmol/kg.
Regarding `CCCC[C@H](NC(=O)CCc1ccc(OS(=O)(=O)O)cc1)C(=O)NCC(=O)N[C@@H](Cc1c[nH]c2ccccc12)C(=O)N[C@@H](CCCC)C(=O)N1CC(OS(=O)(=O)O)C[C@H]1C(=O)N[C@@H](Cc1ccccc1)C(N)=O` (stereo partly specified) ({Hydrocinnamoyl(4-OSO3H)}-[Nle]GW[Nle][X2]F-NH2), in [3], the Ratio amounted to 0.03. This compound gave a Max response in the assay listed under Cavia porcellus [8] of 82%. In assay [10], the ED50 was above 1 µmol/kg. Further, the Supression entry in the assay with Rattus norvegicus [11] is “inactive”.
Compound `CCCC[C@H](NC(=O)c1ccc2cc(OS(=O)(=O)O)ccc2c1)C(=O)NCC(=O)N[C@@H](Cc1c[nH]c2ccccc12)C(=O)N[C@@H](CCCC)C(=O)N[C@@H](CC(=O)O)C(=O)N[C@@H](Cc1ccccc1)C(N)=O` (X4-[Nle]GW[Nle]DF-NH2) returned a Stimulation in the assay listed under Cavia porcellus [12] of 44%. The compound also gave a pIC50 in assay [1] of 6.05. For the same compound, the Max response in [2] stood at 16%. For the same compound, the Ratio in assay [3] came out at 0.04.
Regarding `CCCC[C@H](NC(=O)/C=C/c1ccc(OS(=O)(=O)O)cc1)C(=O)NCC(=O)N[C@@H](Cc1c[nH]c2ccccc12)C(=O)N[C@@H](CCCC)C(=O)N[C@@H](CC(=O)O)C(=O)N[C@@H](Cc1ccccc1)C(N)=O` (X6-[Nle]GW[Nle]DF-NH2), the pIC50 in [1] was 7.64. The compound further returned a Stimulation in the assay filed under Cavia porcellus [13] of 105%.
The compound `CCCC[C@H](NC(=O)[C@H](Cc1c[nH]c2ccccc12)NC(=O)CNC(=O)[C@@H](CCCC)NC(=O)CCc1ccc(OS(=O)(=O)O)cc1)C(=O)N[C@@H](CC(=O)O)C(=O)N[C@@H](Cc1ccccc1)C(N)=O` gave a pIC50 in [1] of 6.82. The Max response in assay [2] was 52%. In [3], the Ratio was 18.5.
`CCCC[C@H](NC(=O)[C@H](Cc1c[nH]c2ccccc12)NC(=O)CNC(=O)[C@H](CC(C)C)NC(=O)CCc1ccc(OS(=O)(=O)O)cc1)C(=O)N[C@@H](CC(=O)O)C(=O)N[C@@H](Cc1ccccc1)C(N)=O` ({Hydrocinnamoyl(4-OSO3H)}-LGW[Nle]DF-NH2): in [1], the pIC50 was 9.17. In assay [2], the Max response was 120%. In assay [3], the Ratio was determined as 1.1. Besides, the concentration giving a half-maximal response (EC50) in [4] is reported as 0.64 nM.
With `CCCC[C@H](NC(=O)CCc1ccc(OS(=O)(=O)O)cc1)C(=O)NCC(=O)N[C@@H](Cc1c[nH]c2ccccc12)C(=O)N1CCC(CCC)[C@H]1C(=O)N[C@@H](CC(=O)O)C(=O)N(C)[C@@H](Cc1ccccc1)C(N)=O` (stereo partly specified) ({Hydrocinnamoyl(4-OSO3H)}-[Nle]GW[X1]D[NMeF]-NH2), the Ratio in [3] was determined as 14.3. Moreover, the Max response in the assay listed under Cavia porcellus [8] is given as 83%. The compound further returned a median effective dose (ED50) in assay [10] of 0.00877 µmol/kg. In addition, the Supression result in the assay on Rattus norvegicus [11] was “inactive”.
As to `CCCC[C@H](NC(=O)CCc1ccc(OS(=O)(=O)O)cc1)C(=O)NCC(=O)N[C@@H](Cc1c[nH]c2ccccc12)C(=O)N[C@@H](CCCC)C(=O)N[C@@H](CC(=O)O)C(=O)N[C@@H](Cc1ccccc1)C(N)=O`, in assay [14], the Ratio turned out to be 1.53. Moreover, the negative logarithm of the IC50 (pIC50) in [1] was 9.11. Moreover, the Max response in [2] was found to be 100%. In assay [10], this compound displayed a median effective dose (ED50) of 0.00398 µmol/kg. Also, in the assay on Rattus norvegicus [11], the Supression entry was “inactive”. In assay [4], the EC50 was 0.99 nM.
On to `CCCC[C@H](NC(=O)[C@H](Cc1c[nH]c2ccccc12)NC(=O)CN1CC[C@H](NC(=O)CCc2ccc(OS(=O)(=O)O)cc2)C1=O)C(=O)N[C@@H](CC(=O)O)C(=O)N[C@@H](Cc1ccccc1)C(N)=O`, for which the negative-log IC50 (pIC50) in assay [1] is 6.89. Also, the Max response in assay [2] worked out at 86%. Besides, in assay [3], the Ratio amounted to 9. In addition, the EC50 in assay [4] is listed as 71 nM.
In the same order, the values of `CCCC[C@H](NC(=O)CCc1ccc(OS(=O)(=O)O)cc1)C(=O)NCC(=O)N[C@@H](Cc1c[nH]c2ccccc12)C(=O)N(C)[C@@H](CC(C)C)C(=O)N[C@@H](CC(=O)O)C(=O)N[C@@H](Cc1ccccc1)C(N)=O` ({Hydrocinnamoyl(4-OSO3H)}-[Nle]GW[NMeL]DF-NH2) are 6.85, 80%, 625 and 15 nM.
